Legend:
PTH secretion [1] = assay: PTH secretion action, Experimental Example 2 (serum PTH after oral administration); type: in vivo, male SD rats; conditions: test compound administration group, 1 mg/5 ml/kg oral, rats fasted 20 hr
Protocol: The test compound was orally administered to 5 to 9-week-old male SD rats (Charles River Japan, Inc.) fasted for 20 hr, using a solvent (0.5% methyl cellulose solution) at a dose of 1 mg/5 ml/kg. A solvent alone was orally administered to the control group at a dose of 5 ml/kg. The blood was drawn from the tail vein immediately before and, 15 min, 30 min, 60 min and 120 min after the administration of the test compound, and serum was obtained. The serum PTH concentration was measured using rat PTH ELISA kit (Amersham Biosciences).

human calcium receptor = target: T1, human calcium receptor (Homo sapiens, UniProt P41180); assay: Evaluation of antagonistic action on calcium receptor using reporter gene (luciferase); type: cell-based; conditions: transformed rat adrenal derived cells, 5 mM calcium chloride, culture 4 hrs, luciferase activity; read-out: Reporter gene assay (IC50, concentration showing 50% inhibitory rate)
T1 construct: expressed in transfected cells; host or cells: cell strain derived from rat adrenal, co-transformed with luciferase cDNA
T1 sequence (P41180 20-1078): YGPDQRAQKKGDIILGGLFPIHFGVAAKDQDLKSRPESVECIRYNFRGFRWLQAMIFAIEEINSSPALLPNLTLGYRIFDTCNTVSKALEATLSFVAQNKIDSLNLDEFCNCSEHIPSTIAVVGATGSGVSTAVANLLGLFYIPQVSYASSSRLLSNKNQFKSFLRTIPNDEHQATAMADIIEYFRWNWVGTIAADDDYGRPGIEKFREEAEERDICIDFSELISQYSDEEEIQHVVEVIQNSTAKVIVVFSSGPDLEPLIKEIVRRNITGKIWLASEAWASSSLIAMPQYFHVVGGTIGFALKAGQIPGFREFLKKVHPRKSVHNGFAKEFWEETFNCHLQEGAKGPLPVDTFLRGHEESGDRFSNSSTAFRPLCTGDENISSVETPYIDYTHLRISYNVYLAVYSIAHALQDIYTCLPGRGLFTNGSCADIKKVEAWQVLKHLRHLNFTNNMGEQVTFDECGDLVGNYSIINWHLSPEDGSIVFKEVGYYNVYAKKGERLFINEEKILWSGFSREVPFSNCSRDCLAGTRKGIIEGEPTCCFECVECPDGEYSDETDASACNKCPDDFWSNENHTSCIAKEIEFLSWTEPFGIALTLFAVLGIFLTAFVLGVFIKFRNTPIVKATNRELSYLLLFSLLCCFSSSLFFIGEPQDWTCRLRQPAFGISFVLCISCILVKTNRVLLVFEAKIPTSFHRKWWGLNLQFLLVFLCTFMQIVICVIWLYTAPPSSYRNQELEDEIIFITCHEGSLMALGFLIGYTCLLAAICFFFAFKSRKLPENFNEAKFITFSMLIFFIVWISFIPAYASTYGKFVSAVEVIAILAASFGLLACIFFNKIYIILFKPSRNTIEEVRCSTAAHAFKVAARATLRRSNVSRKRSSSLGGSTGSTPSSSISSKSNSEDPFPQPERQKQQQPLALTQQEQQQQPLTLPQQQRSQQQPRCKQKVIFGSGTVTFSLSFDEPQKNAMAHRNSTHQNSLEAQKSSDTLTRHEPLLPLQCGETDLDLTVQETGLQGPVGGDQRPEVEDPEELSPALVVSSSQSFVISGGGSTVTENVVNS
Summary of the method: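 Rat adrenal-derived cells transfected with luciferase and human calcium receptor cDNA, in F12 with 0.5% dialyzed horse serum and 0.25% dialyzed fetal bovine serum. Luciferase luminescence gave % inhibition vs control and blank; IC50 at 50% inhibition.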

PTH secretion [2] = assay: Concomitant administration of test compound and estrogen: blood PTH with time; type: in vivo, ovariectomized rats; conditions: for PTH (1–84) concentration 0.25 hr: day 16, 0.25 hr; for PTH (1–84) concentration 0.5 hr: day 16, 0.5 hr; for PTH (1–84) concentration 1 hr: day 16, 1 hr; for PTH (1–84) concentration 2 hr: day 16, 2 hr; for PTH (1–84) concentration 4 hr: day 16, 4 hr; for PTH (1–84) concentration 0 hr: day 16, immediately before oral administration
Protocol: The 13-week-old ovariectomized rats were divided into 4 groups of a control group (Group A), an estrogen administration group (Group B), a test compound administration group (Group C), and a test compound and estrogen concomitant administration group (Group D). One sham control group (E group) subjected to a sham surgery was also established. Estradiol was dissolved in 5% benzyl alcohol-corn oil and subcutaneously administered to an estrogen administration groups (Group B and Group D) at the dose of 10 μg/kg. 5% Benzyl alcohol-corn oil was subcutaneously administered to groups (Group A and Group C) free from administration of estrogen. The compound of Example 1-1 was suspended in 0.5% methyl cellulose solution and orally administered to groups (Group C and Group D) to be administered with the test compound at the dose of 3 mg/kg. As regards the groups (Group A and Group B) free from administration of the test compound, 0.5% methyl cellulose solution was orally administered.
In addition, blood was drawn with time for the measurement of blood PTH at day 16 of administration. The blood was drawn in each group from the tail vein immediately before oral administration and 0.25, 0.5, 1, 2 and 4 hr later, and serum was obtained. For serum PTH measurement, a commercially available ELISA kit (“rat intact PTH ELISA kit”, Immutopics) was used.

[3] = Group D concomitant with estradiol
[4] = exclusive administration (Group B estradiol; Group C Example 1-1 3 mg/kg oral)

Structure (SMILES): Cc1ccc(CC(C)(C)NC[C@@H](O)CO[C@H](C)c2ccccc2-c2ccc(C(=O)O)c(C)c2)cc1F [Example 1-1, 2′-[(1R)-[(2R)-3-[[1-(3-Fluoro-4-methylphenyl)-2-methylpropan-2-yl]amino]-2-hydroxypropoxy]ethyl]-3-methylbiphenyl-4-carboxylic acid]
- Serum PTH concentration 15 min later (PTH secretion [1]; 15 min): 43.9 ± 2.0 pg/mL
- Serum PTH concentration 30 min later (PTH secretion [1]; 30 min): 25.0 ± 3.2 pg/mL
- Serum PTH concentration 60 min later (PTH secretion [1]; 60 min): 17.9 ± 2.0 pg/mL
- Serum PTH concentration 120 min later (PTH secretion [1]; 120 min): 14.8 ± 1.6 pg/mL
- IC50 (human calcium receptor): 24 nM
- Change of blood PTH with time (PTH secretion [2]; Table 66, Example 1-1 and estrogen concomitant administration): a transitional increase was observed
- Change of blood PTH with time (PTH secretion [2]; Table 66, exclusive administration): a transitional increase was observed
- PTH (1–84) concentration 0.25 hr (PTH secretion [2]; [3]): 407.35 ± 134.53 pg/mL
- PTH (1–84) concentration 0.25 hr (PTH secretion [2]; [4]): 371.21 ± 77.74 pg/mL
- PTH (1–84) concentration 0.5 hr (PTH secretion [2]; [3]): 418.87 ± 154.78 pg/mL
- PTH (1–84) concentration 0.5 hr (PTH secretion [2]; [4]): 370.78 ± 98.28 pg/mL
- PTH (1–84) concentration 1 hr (PTH secretion [2]; [3]): 279.76 ± 117.98 pg/mL
- PTH (1–84) concentration 1 hr (PTH secretion [2]; [4]): 177.39 ± 96.06 pg/mL
- PTH (1–84) concentration 2 hr (PTH secretion [2]; [3]): 115.50 ± 74.98 pg/mL
- PTH (1–84) concentration 2 hr (PTH secretion [2]; [4]): 117.51 ± 123.12 pg/mL
- PTH (1–84) concentration 4 hr (PTH secretion [2]; [3]): 58.84 ± 16.75 pg/mL
- PTH (1–84) concentration 4 hr (PTH secretion [2]; [4]): 56.50 ± 12.29 pg/mL
- PTH (1–84) concentration 0 hr (PTH secretion [2]; Group D: Example 1-1 3 mg/kg oral and estradiol 10 μg/kg s.c. concomitant): 27.12 ± 4.58 pg/mL
- PTH (1–84) concentration 0 hr (PTH secretion [2]; exclusive administration (Group B estradiol 10 μg/kg s.c.; Group C Example 1-1 3 mg/kg oral)): 31.19 ± 16.28 pg/mL
